From paper PMC2935147 (Journal of medicinal chemistry, 2010)
Counter-ions that a name gives are not always drawn. Like-named read-outs stand apart in the source and are kept apart here. Values belong to the compound of their own block, whether it stands above or below them.

How the values were obtained:
human P2Y4 receptor = human P2Y4 receptor (Homo sapiens, UniProt P51582); details: read-out: EC50 hP2Y4; ref Kim et al.[26]; cited from earlier work
human P2Y6 receptor [1] = molecular target: T1, human P2Y6 receptor (Homo sapiens, UniProt Q15077); details: cited from earlier work
T1 sequence (Q15077 whole entry): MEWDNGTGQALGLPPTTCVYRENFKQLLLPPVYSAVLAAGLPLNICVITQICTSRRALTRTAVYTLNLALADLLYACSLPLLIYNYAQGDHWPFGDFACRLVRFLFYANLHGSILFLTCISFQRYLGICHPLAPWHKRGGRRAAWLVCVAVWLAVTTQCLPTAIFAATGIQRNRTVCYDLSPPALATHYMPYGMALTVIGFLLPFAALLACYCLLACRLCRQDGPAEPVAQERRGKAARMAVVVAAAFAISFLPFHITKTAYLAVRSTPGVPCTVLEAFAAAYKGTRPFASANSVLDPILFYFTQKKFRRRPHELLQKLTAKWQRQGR

human P2Y2 receptor [2] = molecular target: T2, human P2Y2 receptor (Homo sapiens, UniProt P41231); details: read-out: EC50 hP2Y2; ref Kim et al.[26]; cited from earlier work
T2 sequence (P41231 whole entry): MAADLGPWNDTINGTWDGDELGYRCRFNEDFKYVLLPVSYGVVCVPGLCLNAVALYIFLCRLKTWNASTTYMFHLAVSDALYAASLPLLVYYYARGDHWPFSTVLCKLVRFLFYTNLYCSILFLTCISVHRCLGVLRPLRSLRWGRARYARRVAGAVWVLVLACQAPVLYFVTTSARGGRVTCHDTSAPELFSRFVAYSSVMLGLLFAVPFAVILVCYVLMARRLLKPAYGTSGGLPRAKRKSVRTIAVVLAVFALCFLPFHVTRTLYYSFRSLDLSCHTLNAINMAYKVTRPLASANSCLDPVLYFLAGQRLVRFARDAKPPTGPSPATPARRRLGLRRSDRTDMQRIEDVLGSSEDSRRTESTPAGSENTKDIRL

human P2Y6 receptor [3] = molecular target: T1, human P2Y6 receptor; test: PLC activation; assay type: cell-based; details: for Pharmacological properties at hP2Y6 receptor: summary in words, Table 4; for activity at the P2Y6 receptor: 1321N1 cells
human P2Y6 receptor [4] = molecular target: T1, human P2Y6 receptor; assay type: cell-based
human P2Y14 receptor = details: read-out: EC50 at the P2Y14 receptor; cited from earlier work
[5] = Stability in acidic aqueous solution; assay type: physicochemical; details: HCl buffer (pH 1.2)
human P2Y2 receptor [6] = molecular target: T2, human P2Y2 receptor; test: PLC activation; assay type: cell-based
[7] = ratio of EC50 values, PLC activation

Sequence of human P2Y4 receptor (P51582 whole entry): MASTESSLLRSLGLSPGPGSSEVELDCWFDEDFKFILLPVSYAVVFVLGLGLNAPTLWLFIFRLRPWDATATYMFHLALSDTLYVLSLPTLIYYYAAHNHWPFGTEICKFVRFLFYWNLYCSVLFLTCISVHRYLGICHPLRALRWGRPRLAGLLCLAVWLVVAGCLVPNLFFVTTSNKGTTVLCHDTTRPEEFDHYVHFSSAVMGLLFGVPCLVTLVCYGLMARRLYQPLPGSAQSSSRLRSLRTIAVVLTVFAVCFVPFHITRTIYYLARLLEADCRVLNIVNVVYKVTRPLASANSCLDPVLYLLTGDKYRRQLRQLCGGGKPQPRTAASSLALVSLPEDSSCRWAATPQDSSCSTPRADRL

SMILES: O=c1ccn(C2C(O)C(O)C3(COP(=O)(O)OP(=O)(O)OP(=O)(O)O)CC23)c(=O)[nH]1 (stereo not drawn) [Compound 19, (N)-methanocarba UTP]
EC50 (human P2Y4 receptor): 85 ± 5 nM | EC50 (human P2Y6 receptor [1]; read-out: EC50 hP2Y6, NE = no effect at 10 μM, ref Kim et al.[26]): > 10000 nM | EC50 (human P2Y2 receptor [2]): 16 ± 7 nM

SMILES: CCN(CC)CC.O=c1[nH]/c(=N\OCc2ccccc2)ccn1[C@@H]1O[C@H](COP(=O)(O)OP(=O)(O)O)[C@@H](O)[C@H]1O [Compound 15, N^4-Benzyloxycytidine-5′-diphosphate ammonium salt]
Pharmacological properties at hP2Y6 receptor (human P2Y6 receptor [3]): selective, potent agonist

SMILES: CCN(CC)CC.CO/N=c1/ccn([C@@H]2O[C@H](COP(=O)(O)OP(=O)(O)O)[C@@H](O)[C@H]2O)c(=O)[nH]1 [Compound 12, N^4-Methoxycytidine-5′-diphosphate ammonium salt]
selectivity P2Y6 versus P2Y14 receptor (human P2Y6 receptor [3]; PLC via P2Y6 versus inhibition of cyclic AMP accumulation in HEK-293 cells expressing hP2Y14): 47 fold | gain of potency at the P2Y6 receptor over UDP 1 (human P2Y6 receptor [3]; ratio of EC50 values): 4 fold | selectivity P2Y6 versus P2Y2 receptor (human P2Y6 receptor [3]; [7]): 51 fold | Pharmacological properties at hP2Y6 receptor (human P2Y6 receptor [3]): selective, potent agonist

EC50 (human P2Y6 receptor [4]): 630 nM
SMILES: CONc1ccn([C@@H]2O[C@H](COP(=O)(O)OP(=O)(O)OP(=O)(O)OC[C@H]3O[C@@H](n4ccc(NOC)nc4=O)[C@H](O)[C@@H]3O)[C@@H](O)[C@H]2O)c(=O)n1 [Compound 24, N^4-OMe-Cp3(N^4-OMe)C]

SMILES: Nc1ccn([C@@H]2O[C@H](COP(=O)(O)OP(=O)(O)O)[C@@H](O)[C@H]2O)c(=O)n1 [CDP]
activity at the human P2Y6 receptor (human P2Y6 receptor [1]): nearly inactive | EC50 (human P2Y14 receptor): > 10000 nM

SMILES: CCN(CC)CC.O=c1ccn([C@@H]2O[C@H](COP(=O)(O)CP(=O)(O)OP(=O)(O)O[C@H]3O[C@H](CO)[C@@H](O)[C@H](O)[C@H]3O)[C@@H](O)[C@H]2O)c(=O)[nH]1 [Compound 31, Uridine-5′-glucose-1′-α,β-methylenetriphosphate triethylammonium salt]
activity at the P2Y6 receptor (human P2Y6 receptor [3]; PLC activation): only weakly active | Pharmacological properties at hP2Y6 receptor (human P2Y6 receptor [3]): ~inactive

SMILES: CCN(CC)CC.O=C(Cn1c(=O)ccn([C@@H]2O[C@H](COP(=O)(O)OP(=O)(O)OP(=O)(O)O[C@H]3O[C@H](CO)[C@@H](O)[C@H](O)[C@H]3O)[C@@H](O)[C@H]2O)c1=O)c1ccccc1 [Compound 30, 3-Phenacyluridine-5′-glucose-1′-triphosphate triethylammonium salt]
activity at the P2Y6 receptor (human P2Y6 receptor [3]; PLC activation): only weakly active

SMILES: CCN(CC)CC.CO/N=c1/ccn([C@@H]2O[C@H](COP(=O)(O)OP(=O)(O)OP(=O)(O)OC[C@H]3O[C@@H](n4ccc(=O)[nH]c4=O)[C@H](O)[C@@H]3O)[C@@H](O)[C@H]2O)c(=O)[nH]1 [Compound 23, N^4-methoxy-Cp3U]
enhancement of P2Y6 receptor potency relative to Up3U 21 (human P2Y6 receptor [3]; ratio of EC50 values): 22 fold | Pharmacological properties at hP2Y6 receptor (human P2Y6 receptor [3]): selective, potent agonist | EC50 (human P2Y6 receptor [4]): 83 nM

EC50 (human P2Y6 receptor [3]): 2550 ± 700 nM
SMILES: CC(C)(C)O/N=c1/ccn([C@@H]2O[C@H](COP(=O)(O)OP(=O)(O)O)[C@@H](O)[C@H]2O)c(=O)[nH]1 [Compound 14, N^4-t-Butyloxycytidine-5′-diphosphate ammonium salt]

SMILES: CCN(CC)CC.CO/N=c1/ccn([C@@H]2O[C@H](COP(=O)(O)OP(=O)(O)OP(=O)(O)Oc3ccccc3)[C@@H](O)[C@H]2O)c(=O)[nH]1 [Compound 33, N^4-Methoxycytidine-5′-phenyl-triphosphate triethylammonium salt]
activity at the P2Y6 receptor (human P2Y6 receptor [3]; PLC activation): weakly activated

gain of potency at the P2Y6 receptor over (S)-methanocarba-2′-deoxy-UDP 6 (human P2Y6 receptor [3]; ratio of EC50 values): 5 fold | gain of potency at the P2Y6 receptor over UDP 1 (human P2Y6 receptor [3]; ratio of EC50 values): 7 fold
SMILES: N.O=c1ccn([C@@]23C[C@H]2[C@H](COP(=O)(O)OP(=O)(O)O)[C@@H](O)[C@H]3O)c(=O)[nH]1 [Compound 7, (S)-Methanocarba-uridine-5′-diphosphate triethylammonium salt]

EC50 (human P2Y6 receptor [3]): 104 ± 23 nM
SMILES: CCO/N=c1/ccn([C@@H]2O[C@H](COP(=O)(O)OP(=O)(O)O)[C@@H](O)[C@H]2O)c(=O)[nH]1 [Compound 13, N^4-Ethoxycytidine-5′-diphosphate ammonium salt]

SMILES: CCN(CC)CC.O=c1ccn([C@@]23C[C@H]2[C@@H]2COP(=O)(O)OP(=O)(O)O[C@H]2[C@H]3O)c(=O)[nH]1 [Compound 9, (S)-Methanocarba-uridine-3′, 5′-cyclic diphosphate triethylammonium salt]
activity at the P2Y6 receptor (human P2Y6 receptor [3]; PLC activation): inactive

EC50 (human P2Y6 receptor [4]): 200 nM
SMILES: O=c1ccn([C@@H]2O[C@H](COP(=O)(O)OP(=O)(O)O)[C@@H](O)[C@H]2O)c(=O)[nH]1 [Compound 1, uridine-5′-diphosphate]

half-life at 0.2 mg/mL [5]: 218 h | EC50 (human P2Y6 receptor [4]): 370 nM
SMILES: O=c1ccn([C@@H]2O[C@H](COP(=O)(O)OP(=O)(O)OP(=O)(O)OC[C@H]3O[C@@H](n4ccc(=O)[nH]c4=O)[C@H](O)[C@@H]3O)[C@@H](O)[C@H]2O)c(=O)[nH]1 [Compound 21, Up3U]
Pharmacological properties at hP2Y6 receptor (human P2Y6 receptor [3]): moderately potent agonist, only 4-5 fold selective

SMILES: CCN(CC)CC.O=c1ccn([C@@H]2O[C@H](COP(=O)(O)CP(=O)(O)OP(=O)(O)OC[C@H]3O[C@@H](n4ccc(=O)[nH]c4=O)[C@H](O)[C@@H]3O)[C@@H](O)[C@H]2O)c(=O)[nH]1 [Compound 22, P^1,P^3-Di(uridine-5′-)α,β-methylenetriphosphate triethylammonium salt]
reduction of P2Y6 receptor potency relative to Up3U 21 (human P2Y6 receptor [3]; ratio of EC50 values): 5 fold | Pharmacological properties at hP2Y6 receptor (human P2Y6 receptor [3]): weak agonist, selective

SMILES: CCN(CC)CC.CO/N=c1\ccn([C@@H]2O[C@H](COP(=O)(O)OP(=O)(O)OP(=O)(O)O)[C@@H](O)[C@H]2O)c(=O)[nH]1 [Compound 20, N^4-Methoxycytidine-5′-triphosphate ammonium salt]
gain of potency at the P2Y6 receptor over UTP 17 (human P2Y6 receptor [3]; ratio of EC50 values): > 100 fold

SMILES: CCN(CC)CC.O=c1ccn([C@@H]2O[C@H](COP(=O)(O)OP(=O)(O)OP(=O)(O)O[C@H]3O[C@H](CO)[C@@H](O)[C@H](O)[C@H]3O)[C@@H](O)[C@H]2O)c(=O)[nH]1 [Compound 27, P^1-Uridine-5′-P^3-[1]glucose-1′-triphosphate triethylammonium salt]
activity at the P2Y6 receptor (human P2Y6 receptor [3]; PLC activation): only weakly activated | activity at the P2Y6 receptor (human P2Y6 receptor [3]; PLC activation, listed as UTP-glucose): inactive | Pharmacological properties at hP2Y6 receptor (human P2Y6 receptor [3]): ~inactive

EC50 (human P2Y6 receptor [4]): 50 nM
SMILES: O=c1[nH]c(=O)n([C@@H]2O[C@H](COP(=O)(O)OP(=O)(O)O)[C@@H](O)[C@H]2O)cc1I [Compound 3, 5-iodo-UDP]

SMILES: O=c1ccn([C@H]2[C@H](O)[C@H](O)[C@@]3(COP(=O)(O)OP(=O)(O)O)C[C@H]23)c(=O)[nH]1 [Compound 8, (N)-methanocarba UDP]
activity at the P2Y6 receptor (human P2Y6 receptor [1]; previously found): inactive

Pharmacological properties at hP2Y6 receptor (human P2Y6 receptor [3]): ~inactive
SMILES: O=c1ccn([C@@H]2O[C@H](COP(=O)(O)OP(=O)(O)OP(=O)(O)O)[C@@H](O)[C@H]2O)c(=O)[nH]1 [Compound 17, uridine-5′-triphosphate, reference compound]

SMILES: CCN(CC)CC.CO/N=c1/ccn([C@@H]2O[C@H](COP(=O)(O)OP(=O)(O)OP(=O)(O)O[C@H]3O[C@H](CO)[C@@H](O)[C@H](O)[C@H]3O)[C@@H](O)[C@H]2O)c(=O)[nH]1 [Compound 32, N^4-Methoxycytidine-5′-glucose-1′-triphosphate triethylammonium salt]
selectivity P2Y6 versus P2Y2 receptor (human P2Y6 receptor [3]; [7]): > 100 fold | selectivity P2Y6 versus P2Y4 receptor (human P2Y6 receptor [3]; [7]): > 100 fold

SMILES: CCN(CC)CC.O=c1ccn([C@@H]2O[C@H](COP(=O)(O)OP(=O)(O)OP(=O)(O)OC3CCCCC3)[C@@H](O)[C@H]2O)c(=O)[nH]1 [Compound 25, P^1-Uridine-5′-P^3-cyclohexyl-triphosphate triethylammonium salt]
Pharmacological properties at hP2Y6 receptor (human P2Y6 receptor [3]): weak agonist, nonselective vs. P2Y2 receptor

EC50 (human P2Y2 receptor [6]): > 10000 nM | EC50 (human P2Y6 receptor [3]): 678 ± 18 nM
SMILES: CO/N=c1/ccn([C@@H]2O[C@H](COP(=O)(O)CP(=O)(O)O)[C@@H](O)[C@H]2O)c(=O)[nH]1 [Compound 16, N^4-Methoxycytidine-5′-α,β-methylenediphosphate triethylammonium salt]

SMILES: CCN(CC)CC.O=c1ccn([C@@H]2O[C@H](COP(=O)(O)OP(=O)(O)OP(=O)(O)Oc3ccccc3)[C@@H](O)[C@H]2O)c(=O)[nH]1 [Compound 26, P^1-Uridine-5′-P^3-phenyl-triphosphate triethylammonium salt]
Pharmacological properties at hP2Y6 receptor (human P2Y6 receptor [3]): weak agonist, selective
